# Tested on: sugarbeet NIM-like clone (SEQ ID NO:39 and 63)
# Experiment: Northern analysis of sugarbeet NIM-like clone expression after BTH treatment
# Assay type: in vivo, Beta vulgaris
# Settings: after 100 μM or 300 μM BTH treatment
smiles,measurement,value
"CSC(=O)c1cccc2nnsc12 [BTH, benzo(1,2,3)thiadiazole-7-carbothioic acid S-methyl ester]",increase of expression of the sugarbeet NIM-like clone (Northern data),three to seven

# Source: patent publication US20030159171A1, “Novel plant genes and uses thereof” (Syngenta Participations AG, priority 1999, published 2003)
